Test: Inhibition of full-length (FL)-PRMT5:MEP50 enzyme complex (unknown origin) expressed in Sf21 cells assessed as reduction in methylation activity using the N-terminus of H4 histone derived substrate peptide H4R3(Me1) by PRMT5:MEP50 biochemical assay
Parameters: species or system Homo sapiens

IC50 [µM] | SMILES
1 | Nc1ncnc2c1nc1n2[C@@H]2O[C@@H]([C@@H](O)[C@H]2O)[C@@H](c2ccc(Cl)cc2)OCCO1
5.7 | Nc1ncnc2c1nc1n2[C@@H]2O[C@@H]([C@@H](O)[C@H]2O)[C@@H](c2ccc(F)c(F)c2)CCN1
